{"source": "paper PMC11110238", "about": "“Synthesis of novel carbazole hydrazine-carbothioamide scaffold as potent antioxidant, anticancer and antimicrobial agents” (BMC Chemistry, 2024)", "key": {"[1]": {"test": "DPPH radical scavenging assay", "type": "biochemical", "details": "30 min, 517 nm", "protocol": "To estimate the Carbazole derivatives' antioxidant potential, a solution of each compound (1 mM/mL) in methanol was serially diluted with methanol to obtain a concentration of 1, 2, 5, 10, 20, 50, and 100 µM/mL. Then, DPPH (2,2-diphenyl-1-picrylhydrazyl) reagent (Sigma, USA) was dissolved in 0.002% w/v methanol and mixed with the previously prepared working concentrations in a 1:1 ratio. The same procedures were repeated for Trolox (Sigma-Aldrich, Denmark), which was used as a positive control. All of the solutions were kept in the dark chamber for 30 min at an ordinary temperature. Then, their absorbance values were measured at a wavelength of 517 nm utilizing a UV–visible spectrophotometer. The DPPH inhibition potentials by Carbazole derivatives and Trolox were determined employing the following equation: DPPH inhibition(\\%)=abs(blank)-abs(sample)/abs(blank)∗100\\% where absblank is the blank absorbance and abssample is the absorbance of the samples [58]. The antioxidant half-maximal inhibitory concentration (IC50) of the synthesized carbazole derivatives and Trolox were assessed by using an online tool “Quest Graph™ IC50 Calculator.” AAT Bioquest, Inc., 25 May. 2023, https://www.aatbio.com/tools/ic50-calculator."}, "Escherichia coli": {"test_system": "Escherichia coli", "test": "MIC and MBC test, E. coli", "type": "cell-based", "details": "Escherichia coli", "protocol": "(§1) Using Muller Hinton agar medium, the antibacterial activity was evaluated by using 24 h cultures of Escherichia coli, Staphylococcus aureus, and Candida albicans. E. coli and S. aureus were incubated in 1% Mueller Hinton Broth (MHB) liquid medium at 37 °C for 24 h; C. albicans was incubated in Sabouraud Dextrose Broth (SDB) at 30 °C for 48 h. MIC (Minimum Inhibitory Concentration) and MBC (Minimum Bactericidal Concentration) tests were performed to determine antimicrobial activity. This stage was carried out in a sterile cabinet.\n(§2) The density of microorganisms in fresh cultures was adjusted according to the MacFarland 0.5 scale. For that, the microorganisms were centrifuged at 4000 rpm for 20 min. The supernatant was poured off, and the pellet was washed with 1 mL of 0.9% NaCl solution (physiological saline). The centrifugation was then repeated. The pellet was dissolved again with saline solution and adjusted to 0.5 MacFarland. In the experiment performed in a sterile 96-well plate, compound 4o was diluted ½ with DMSO to prepare a stock solution. In the first, 100 µl of medium and 100 µl of compound 4o as initial dilutions. Dilution was performed seven times at a ratio of ½. Then, 5 µl of fresh microorganism cultures prepared as MacFarland 0.5 were inoculated. The control group was prepared as 100 µl medium, 100 µl distilled water, and 5 µl microorganisms. The plates were incubated at 37 °C and 30 °C for 24 h.\n(§3) After incubation, 10 µl of the sample was taken, dropped onto the respective media, and incubated for 24 h at appropriate temperatures to clearly distinguish the residues left by the compound 4o and the growth of microorganisms. Mueller Hinton Agar (MHA) was used for E. coli and S. aureus, and Potato Dextrose Agar (PDA) was used for C. albicans. After incubation, MIC and MBC values were determined. The first well with a significant decrease in growth was considered as MIC, and the first well with no growth was considered as MBC [59, 60]."}, "Candida albicans": {"test_system": "Candida albicans", "test": "MIC and MBC test, C. albicans", "type": "cell-based", "protocol": "as §1, §2, §3"}, "MCF-7 cells [2]": {"test_system": "MCF-7 cells", "test": "Cell cycle analysis by flow cytometry", "type": "cell-based", "description": "The manufacturer protocol (Sigma-Aldrich Mak344 Cell Cycle Analysis Kit) was used to perform cell cycle experiments and analyzed by flow cytometry (Beckman Coulter Cytoflex)."}, "MCF-7 cells [3]": {"test_system": "MCF-7 cells", "test": "Annexin-V-FITC/PI apoptosis assay by flow cytometry", "type": "cell-based", "protocol": "FITC Annexin-V apoptosis detection kit with PI, ApopNexinTM FITC (APT750, Merk, Germany) was used for apoptosis assay. MCF-7 cells were seeded into a 6-well plate (1 × 10^6 cells per well). Then, the cells were incubated with the compounds at the cytotoxic concentration by employing a cell viability assay. Apoptotic cells were cultured with the compounds, the medium was removed after incubation, and the cells were washed twice with 5 mL of pre-chilled phosphate-buffered saline. Cells washed with PBS were lifted with Trypsin–EDTA and centrifuged at 400 rpm for 5 min. The resulting cells were each treated with 1 mL of cold 1-X Binding Buffer (Sigma Aldrich, USA). Then, 200 μL of the mixture was taken and placed in a flow cytometry tube, and the other part containing cells was kept on ice. First, 3 µl of ApopNexinTM FITC and 2 µl of 100X propidium iodide (PI) (P4170, Sigma Aldrich, USA) were added to the solution taken into the sample tube and mixed. The resulting mixture was incubated for 15 min in the dark at room temperature. At the end of the incubation, the samples were measured in flow cytometry (Beckman Coulter Cytoflex) and data were obtained."}, "Staphylococcus aureus": {"test_system": "Staphylococcus aureus", "test": "MIC and MBC test, S. aureus", "type": "cell-based", "details": "Staphylococcus aureus", "protocol": "as §1, §2, §3"}, "L929 normal cell lines": {"test_system": "L929 normal cell lines", "test": "MTT cell viability, L929 normal cell line", "type": "cell-based", "details": "Mus musculus, 48 h", "protocol": "(§4) Cells (MCF-7 and L929) were incubated in 75 cm^2 sterile flasks with 10% FBS, 100 U/mL penicillin, and 100 µg/mL streptomycin. The cells were grown at 37 ^○C in 5% CO2, and MTT was used to screen the viability of the cells. Cells were seeded at a density of 10^4 cells per well. The cells were then cultured for 24 h in 100 µl of DMEM complete medium. After pretreatment with different concentrations of the compounds for 48 h, 10 µl of 5 mg/mL MTT solution was added to each well and incubated for 4 h at 37 ^○C, and 100 µl of DMSO was used in each well to dissolve the blue formazan crystals. Then, the absorbance was measured at 570 nm. The cell viability percentages of compound 4o against MCF-7 cancer cell lines and L929 normal cell lines were presented in Fig. 2 in comparison with doxorubicin anticancer agent."}, "MCF-7 cell line": {"test_system": "MCF-7 cell line", "test": "MTT cell viability, MCF-7 cancer cell line", "type": "cell-based", "protocol": "MCF-7 cancer cell lines were cultured at Dulbecco’s Modified Eagle Medium High Glucose (DMEM) (EuroClone, Via Figino, Italy); fetal bovine serum (FBS) and MTT (3-(4,5-Dimethylthiazol-2-yl)-2,5-Diphenyl Tetrazolium Bromide) were provided by Sigma-Aldrich (Darmstadt, Germany); ApopNexin Annexin-V-FITC with PI Apoptosis Kit was obtained from Merck (Darmstadt, Germany); Total RNA Isolation Kit was provided by Analytic Jena (Jena, Germany), SensiFast cDNA Synthesis Kit was provided by Meridian Bioscience (Cincinati, USA), SybrGreen Master Mix was obtained from EuroClone (Via Figino, Italy).\nas §4"}, "HeLa cancer cell lines": {"test_system": "HeLa cancer cell lines", "set-up": "method as in PMID 37328860", "details": "previous preliminary work; read-out: anticancer IC50 HeLa; cited from earlier work"}, "[4]": {"set-up": "method as in PMID 37328860", "details": "previous preliminary work; read-out: Antioxidant IC50 against DPPH; cited from earlier work"}, "MCF-7 cancer cell lines": {"test_system": "MCF-7 cancer cell lines", "set-up": "method as in PMID 37328860", "details": "previous preliminary work; read-out: anticancer IC50 MCF-7; cited from earlier work"}}, "note": "Where two headings read alike, the source gives them in different places."}
{"compound": "O=C(Cn1c2ccccc2c2ccccc21)NNC(=S)NC(=O)c1ccccc1", "note": "[Compound 4o, N-(2-(2-(9H-carbazol-9-yl)acetyl)hydrazine-1-carbonothioyl)benzamide]", "values": [{"measurement": "IC50", "setting": "[1]", "result": "158 ± 2.54", "unit": "µM"}, {"measurement": "MBC", "setting": "Escherichia coli; read-out: MBC", "result": 1.56, "unit": "µM"}, {"measurement": "MIC", "setting": "Escherichia coli; read-out: MIC", "result": 1.56, "unit": "µM"}, {"measurement": "MBC", "setting": "Candida albicans", "result": 0.39, "unit": "µM"}, {"measurement": "MIC", "setting": "Candida albicans", "result": 0.39, "unit": "µM"}, {"measurement": "cell cycle arrest", "setting": "MCF-7 cells [2]", "result": "cell cycle arrest in the MCF-7 cell line in the G2/M phase"}, {"measurement": "induction of apoptosis", "setting": "MCF-7 cells [3]; MCF-7", "result": "drives MCF-7 cells to apoptosis"}, {"measurement": "necrosis cell population", "setting": "MCF-7 cells [3]; MCF-7, cytotoxic concentration", "result": 3.69, "unit": "%"}, {"measurement": "post-apoptotic cell population", "setting": "MCF-7 cells [3]; MCF-7, cytotoxic concentration", "result": 4.33, "unit": "%"}, {"measurement": "pre-apoptotic cell population", "setting": "MCF-7 cells [3]; MCF-7, cytotoxic concentration", "result": 8.20, "unit": "%"}, {"measurement": "viable cell population", "setting": "MCF-7 cells [3]; MCF-7, cytotoxic concentration", "result": 83.78, "unit": "%"}, {"measurement": "total dead cells", "setting": "MCF-7 cells [3]; MCF-7, sum of pre-apoptotic, post-apoptotic and necrosis", "result": 16.22, "unit": "%"}, {"measurement": "MIC", "setting": "Staphylococcus aureus", "result": 1.56, "unit": "µM"}, {"measurement": "MBC", "setting": "Staphylococcus aureus; read-out: MBC", "result": 1.56, "unit": "µM"}, {"measurement": "IC50", "setting": "L929 normal cell lines", "result": 37.8, "unit": "µM"}, {"measurement": "IC50", "setting": "MCF-7 cell line; Homo sapiens, MCF7, MTT, 48 h, read-out: IC50 values Carbazole Derivatives Effect on MCF-7 Cell Line", "result": "2.02 ± 0.04", "unit": "µM"}, {"measurement": "selective index (SI)", "setting": "MCF-7 cell line; L929 vs MCF-7", "result": 18.70}]}
{"compound": "O=C(Cn1c2ccccc2c2ccccc21)N/N=C1\\SCC(=O)N1c1ccc(Cl)cc1", "note": "[St.2]", "values": [{"measurement": "IC50", "setting": "HeLa cancer cell lines", "result": 7.59, "unit": "µM"}, {"measurement": "IC50", "setting": "[4]", "result": 5.15, "unit": "µM"}, {"measurement": "IC50", "setting": "MCF-7 cancer cell lines", "result": 18.4, "unit": "µM"}]}
{"compound": "O=C(c1ccc(F)cc1)n1nc(Cn2c3ccccc3c3ccccc32)oc1=O", "note": "[St.3]", "values": [{"measurement": "IC50", "setting": "HeLa cancer cell lines", "result": 17.2, "unit": "µM"}, {"measurement": "IC50", "setting": "MCF-7 cancer cell lines", "result": 6.44, "unit": "µM"}]}
